Broadly, the IC50 is the concentration that inhibits the measured activity by half. The low end stands for inhibition by little substance, the high end for a need for much substance.

Results on 18 molecules are retold here after US20260200928A1, “THERAPEUTIC COMPOUNDS” (Sanofi, priority 2022, published 2026).

The test deals with T1, human IL-17A (Homo sapiens, UniProt Q16552).
T1 construct: purchased R&D Systems 7955-IL/CF
T1 sequence (Q16552 24-155): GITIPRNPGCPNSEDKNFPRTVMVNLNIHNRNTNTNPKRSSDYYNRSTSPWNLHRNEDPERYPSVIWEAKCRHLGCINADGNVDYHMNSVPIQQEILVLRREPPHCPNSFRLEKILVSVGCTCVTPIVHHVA
Kind of test: IL-17A AlphaLISA competition assay (block of IL-17A binding to its receptor IL-17RA). As to conditions: mean IC50 (n≥2), block of IL-17A binding to IL-17RA. A digest of the protocol:
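Human recombinant IL-17A (7.5 nM stock) pre-incubated 30 min at RT with compound, then IL-17RA/Fc (5 nM stock) added for 90 min; AlphaLISA read with anti-Fc acceptor beads, biotinylated anti-IL-17A antibody (5 nM) and streptavidin donor beads (3 h, dark). IC50 from 4-parameter logistic fit, normalised to DMSO and 4 μM reference inhibitor; n≥2.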
In general terms: In Alpha technology, singlet oxygen from a donor bead excites a nearby acceptor bead.
Molecule `COC[C@H](c1ccnc(NC(=O)[C@@H](NC(=O)c2ccnn2C(C)C)C2CCC(F)(F)CC2)c1)N1CC(F)(F)CNC1=O` [Example 181, N-((S)-2-((4-((S)-1-(5,5-difluoro-2-oxotetrahydropyrimidin-1(2H)-yl)-2-methoxyethyl)pyridin-2-yl)amino)-1-(4,4-difluorocyclohexyl)-2-oxoethyl)-1-isopropyl-1H-pyrazole-5-carboxamide] returned an IC50 of 102 nM.

On to `COC[C@H](c1ccnc(NC(=O)[C@@H](NC(=O)c2ccnn2C(C)C)C(C2CC2)C2CC2)c1)N1C[C@@H](C(F)(F)F)NC1=O` [Example 229, N-((S)-1,1-dicyclopropyl-3-((4-((S)-2-methoxy-1-((S)-2-oxo-4-(trifluoromethyl)imidazolidin-1-yl)ethyl)pyridin-2-yl)amino)-3-oxopropan-2-yl)-1-isopropyl-1H-pyrazole-5-carboxamide], for which the IC50 is 86 nM.

`COC[C@H](c1ccnc(NC(=O)[C@@H](NC(=O)C(F)(F)c2cccc(C#N)c2)[C@H]2CC[C@H](C)CC2)c1)N1C[C@@H](C(F)(F)F)NC1=O` (relative stereo) [Example 247, 2-(3-Cyanophenyl)-2,2-difluoro-N—((S)-2-((4-((S)-2-methoxy-1-((S)-2-oxo-4-(trifluoromethyl)imidazolidin-1-yl)ethyl)pyridin-2-yl)amino)-1-((1r,4S)-4-methylcyclohexyl)-2-oxoethyl)acetamide]: the IC50 came out at 58 nM.

For `COC[C@H](c1ccnc(NC(=O)[C@@H](NC(=O)c2conc2C(C)C)C2CCC(F)(F)CC2)c1)N1C[C@@H](C(F)(F)F)NC1=O` [Example 197, N-((S)-1-(4,4-difluorocyclohexyl)-2-((4-((S)-2-methoxy-1-((S)-2-oxo-4-(trifluoromethyl)imidazolidin-1-yl)ethyl)pyridin-2-yl)amino)-2-oxoethyl)-3-isopropylisoxazole-4-carboxamide], the IC50 came out at 56 nM.

The molecule `COC[C@H](c1ccnc(NC(=O)[C@H](COC(C)(C)C(F)(F)F)NC(=O)c2ccnn2C(C)C)c1)N1C[C@@H](C(F)(F)F)NC1=O` [Example 272, 1-isopropyl-N-((S)-1-((4-((S)-2-methoxy-1-((S)-2-oxo-4-(trifluoromethyl)imidazolidin-1-yl)ethyl)pyridin-2-yl)amino)-1-oxo-3-((1,1,1-trifluoro-2-methylpropan-2-yl)oxy)propan-2-yl)-1H-pyrazole-5-carboxamide] displayed an IC50 of 48 nM.

Take `COCC(NC(=O)CCC(F)(F)F)c1ccnc(NC(=O)[C@@H](NC(=O)c2ccnn2C2CC2)C2CCC(F)(F)CC2)c1` (single isomer, unassigned) [Example 146]: the IC50 worked out at 4450 nM.

`CCc1conc1C(=O)N[C@H](C(=O)Nc1cc([C@@H](COC)N2C[C@@H](C(F)(F)F)NC2=O)ccn1)[C@H]1CCCC(F)(F)C1` (single isomer, unassigned) [Example 305]: the IC50 was found to be 29 nM.

In the case of `CC[C@H](c1ccnc(NC(=O)[C@@H](NC(=O)c2nonc2C)C2CCC(F)(F)CC2)c1)N1C[C@@H](C(F)(F)F)NC1=O` [Example 211, N-((S)-1-(4,4-difluorocyclohexyl)-2-oxo-2-((4-((R)-1-((S)-2-oxo-4-(trifluoromethyl)imidazolidin-1-yl)propyl)pyridin-2-yl)amino)ethyl)-4-methyl-1,2,5-oxadiazole-3-carboxamide], the IC50 came out at 33 nM.

Regarding `COCC(c1ccnc(NC(=O)[C@@H](NC(=O)c2nonc2C2CC2)[C@H]2CC[C@H](C)CC2)c1)N1C[C@@H](C(F)(F)F)NC1=O` (single isomer, unassigned) [Example 59], the IC50 was 61 nM.

Regarding `COC[C@H](c1ccnc(NC(=O)[C@@H](NC(=O)c2ccnn2C(C)C)[C@H]2CCCC(F)(F)C2)c1)N1C[C@@H](C(F)(F)F)NC1=O` (single isomer, unassigned) [Example 309], the IC50 stood at 98 nM.

`Cc1nonc1C(=O)N[C@H](C(=O)Nc1cc(C(C)N2C[C@@H](C(F)(F)F)NC2=O)ccn1)C1CCC(F)(F)CC1` (single isomer, unassigned) [Example 169, N-((1S)-1-(4,4-Difluorocyclohexyl)-2-oxo-2-((4-(R or S)-(1-((S)-2-oxo-4-(trifluoromethyl)imidazolidin-1-yl)ethyl)pyridin-2-yl)amino)ethyl)-4-methyl-1,2,5-oxadiazole-3-carboxamide] showed an IC50 of 79 nM.

For the molecule `CCn1nccc1C(=O)N[C@H](C(=O)Nc1cc([C@@H](COC)N2C[C@@H](C(F)(F)F)NC2=O)ccn1)C1CCC(F)(F)CC1` [Example 201, N-((S)-1-(4,4-difluorocyclohexyl)-2-((4-((S)-2-methoxy-1-((S)-2-oxo-4-(trifluoromethyl)imidazolidin-1-yl)ethyl)pyridin-2-yl)amino)-2-oxoethyl)-1-ethyl-1H-pyrazole-5-carboxamide], the IC50 came to 70 nM.

As for `COCC(c1ccnc(NC(=O)[C@@H](NC(=O)Cc2cc(C)[nH]n2)[C@H]2CC[C@H](C)CC2)c1)N1C[C@@H](C(F)(F)F)NC1=O` (single isomer, unassigned) [Example 114], the IC50 is 82 nM.

Consider `COC[C@H](c1ccnc(NC(=O)[C@@H](NC(=O)c2cnoc2C(C)C)[C@@H]2C[C@H]3C[C@H]3C2)c1)N1C[C@@H](C(F)(F)F)NC1=O` [Example 319, N—((S)-1-((1R,3s,5S)-bicyclo[3.1.0]hexan-3-yl)-2-((4-((S)-2-methoxy-1-((S)-2-oxo-4-(trifluoromethyl)imidazolidin-1-yl)ethyl)pyridin-2-yl)amino)-2-oxoethyl)-5-isopropylisoxazole-4-carboxamide], for which the IC50 was determined as 38 nM.

On to `COC[C@H](c1ccnc(NC(=O)[C@@H](NC(=O)c2nonc2C)C2CCC(F)(F)CC2)c1)N1C[C@@H](C(F)(F)F)NC1=O` [Example 199, N-((S)-1-(4,4-difluorocyclohexyl)-2-((4-((S)-2-methoxy-1-((S)-2-oxo-4-(trifluoromethyl)imidazolidin-1-yl)ethyl)pyridin-2-yl)amino)-2-oxoethyl)-4-methyl-1,2,5-oxadiazole-3-carboxamide], for which the concentration for half-maximal inhibition (IC50) amounted to 33 nM.

Take `CC(C)(C)OC(=O)N[C@H](C(=O)Nc1cc(COC(=O)NCC(F)(F)F)ccn1)C1CCC(F)(F)CC1` [Example 45, Tert-butyl (S)-(1-(4,4-difluorocyclohexyl)-2-oxo-2-((4-((((2,2,2-trifluoroethyl)carbamoyl)oxy)methyl)pyridin-2-yl)amino)ethyl)carbamate]: the 50% inhibitory concentration (IC50) turned out to be 10300 nM.

For the molecule `CC(C)n1nccc1C(=O)N[C@H](C(=O)Nc1cc(CN2C[C@@H](C(F)(F)F)NC2=O)c(F)cn1)[C@H]1CC[C@H](C)CC1` [Example 63, N-((S)-2-((5-fluoro-4-(((S)-2-oxo-4-(trifluoromethyl)-imidazolidin-1-yl)methyl)-pyridin-2-yl)amino)-1-((1r,4S)-4-methylcyclo-hexyl)-2-oxoethyl)-1-isopropyl-1H-pyrazole-5-carboxamide], the IC50 worked out at 330 nM.

`COC[C@H](c1ccnc(NC(=O)[C@@H](NC(=O)c2nonc2C)C2CCC(Cl)CC2)c1)N1C[C@@H](C(F)(F)F)NC1=O` (stereo partly drawn) [Example 315, N-((1S)-1-(4-chlorocyclohexyl)-2-((4-((S)-2-methoxy-1-((S)-2-oxo-4-(trifluoromethyl)imidazolidin-1-yl)ethyl)pyridin-2-yl)amino)-2-oxoethyl)-4-methyl-1,2,5-oxadiazole-3-carboxamide]: the IC50 was 90 nM.
